Assay results as given in the NIST ThermoML archive (doi:10.1021/je8002095).
Numbers after ± are expanded uncertainties.

Experiments:
[1] = refractive index (Na D-line) (dimensionless); conditions: 101.33 kPa, Liquid
[2] = molar heat capacity at constant pressure; conditions: 101.33 kPa, Liquid, differential scanning calorimeter
[3] = for kinematic viscosity / mass density / speed of sound: 101.33 kPa, Liquid

CCCCCCCC[n+]1cccc(C)c1.F[B-](F)(F)F [N-octyl-3-methylpyridinium tetrafluoroborate]
Conditions | kinematic viscosity, [3] [m2/s] | mass density, [3] [kg/m3] | molar heat capacity at constant pressure, [2] [J/K/mol] | refractive index, [1] | speed of sound, [3] [m/s] | surface tension liquid-gas, [3] [mN/m]
278.15 K | 0.00248 ± 0.00084 | 1106.4 ± 1.9 | 433.8 ± 26 | – | 1571.9 ± 3.7 | 39.82 ± 0.54
280.65 K | 0.00193 ± 0.00061 | 1105 ± 1.9 | 435.7 ± 26 | – | 1564.9 ± 3.6 | 39.28 ± 0.54
283.15 K | 0.00154 ± 0.00046 | 1103.6 ± 1.9 | 437.4 ± 26 | 1.45978 ± 0.0013 | 1557.7 ± 3.6 | 38.7 ± 0.53
285.65 K | 0.00123 ± 0.00034 | 1102.1 ± 1.8 | 439.4 ± 26 | 1.45907 ± 0.0013 | 1549.2 ± 3.6 | 38.3 ± 0.53
288.15 K | 0.00102 ± 0.00027 | 1100.7 ± 1.8 | 441.4 ± 26 | 1.45835 ± 0.0013 | 1541.2 ± 3.6 | 37.91 ± 0.52
290.65 K | 0.000817 ± 0.0002 | 1099.4 ± 1.8 | 443.7 ± 27 | 1.45764 ± 0.0013 | 1533.5 ± 3.6 | 37.52 ± 0.52
293.15 K | 0.000681 ± 0.00016 | 1097.7 ± 1.8 | 446.1 ± 27 | 1.45691 ± 0.0013 | 1526.3 ± 3.6 | 37.19 ± 0.52
295.65 K | 0.000558 ± 0.00012 | 1096.3 ± 1.8 | 448.4 ± 27 | 1.4562 ± 0.0013 | 1518.7 ± 3.6 | 36.81 ± 0.51
298.15 K | 0.000462 ± 9e-05 | 1094.5 ± 1.8 | 450.5 ± 27 | 1.45547 ± 0.0013 | 1511.4 ± 3.6 | 36.51 ± 0.51
300.65 K | 0.000388 ± 7e-05 | 1093.3 ± 1.8 | 452.8 ± 27 | 1.45477 ± 0.0013 | 1505.4 ± 3.6 | 36.23 ± 0.5
303.15 K | 0.000327 ± 5.4e-05 | 1091.5 ± 1.8 | 455 ± 27 | 1.45405 ± 0.0013 | 1498.1 ± 3.6 | 35.94 ± 0.5
305.65 K | 0.00028 ± 4.2e-05 | 1089.7 ± 1.8 | 457.2 ± 27 | 1.45333 ± 0.0013 | 1491.2 ± 3.5 | 35.67 ± 0.5
308.15 K | 0.000238 ± 3.3e-05 | 1088.1 ± 1.7 | 459.2 ± 28 | 1.45261 ± 0.0013 | 1484.6 ± 3.5 | 35.46 ± 0.5
310.65 K | 0.000205 ± 2.5e-05 | 1086.3 ± 1.7 | 461.3 ± 28 | 1.4519 ± 0.0013 | 1478.1 ± 3.5 | 35.22 ± 0.49
313.15 K | 0.000177 ± 2e-05 | 1084.7 ± 1.7 | 463.3 ± 28 | 1.45121 ± 0.0013 | 1472.3 ± 3.5 | 35.02 ± 0.49
315.65 K | 0.000156 ± 1.6e-05 | 1083.1 ± 1.7 | 465.1 ± 28 | 1.45047 ± 0.0013 | 1465.7 ± 3.5 | 34.81 ± 0.49
318.15 K | 0.000136 ± 1.2e-05 | 1081.4 ± 1.7 | 467 ± 28 | 1.44976 ± 0.0013 | 1459.3 ± 3.5 | 34.63 ± 0.49
320.65 K | 0.000119 ± 9.2e-06 | 1079.8 ± 1.7 | 468.7 ± 28 | 1.44903 ± 0.0013 | 1453.2 ± 3.5 | 34.46 ± 0.49
323.15 K | 0.000105 ± 6.9e-06 | 1078.3 ± 1.7 | 470.3 ± 28 | 1.44831 ± 0.0013 | 1446.5 ± 3.5 | 34.28 ± 0.48
325.65 K | 9.27e-05 ± 5.2e-06 | 1076.5 ± 1.7 | 472 ± 28 | 1.4476 ± 0.0013 | 1440.4 ± 3.5 | 34.13 ± 0.48
328.15 K | 8.22e-05 ± 3.7e-06 | 1074.9 ± 1.7 | 473.7 ± 28 | 1.4469 ± 0.0013 | 1433.6 ± 3.5 | 33.98 ± 0.48
